Source: US20220331318A1, “USE OF AN MDM2 INHIBITOR FOR THE TREATMENT OF MYELOFIBROSIS” (Novartis AG, priority 2019, published 2022)

Key:
[1] = Preliminary PK analysis, Phase I/II study of ruxolitinib with siremadlin in myelofibrosis patients; type: in vivo, human; settings: for Exposure compared with historical single-agent data: combination of ruxolitinib and siremadlin 20 mg QD
Source text: (§1) A Randomized, Open-Label, Phase I/II Open Platform Study Evaluating Safety and Efficacy of Novel Ruxolitinib Combination in Myelofibrosis Patients
(§2) The purpose of this study is to investigate the safety, pharmacokinetics and preliminary efficacy of combination treatment of ruxolitinib with siremadlin in MF subjects. The study consists of three parts:
Dose reductions/interruptions were not taken into consideration for this preliminary PK analysis. Nominal times were used.
This study was not specifically designed to investigate the potential for PK drug interactions, however comparative assessment of historical data has been done. A PK DDI between ruxolitinib and siremadlin is unlikely or predicted to be low, based on PBPK analysis.

[2] = system: broad panel of 26 kinases; settings: tested at 200 nM; cited from earlier work
[3] = system: other major CYP enzymes or transporters; settings: cited from earlier work
JAK3 = JAK3 (Homo sapiens, UniProt P52333); settings: at clinically relevant concentrations; cited from earlier work
Sequence of JAK3 (P52333 whole entry): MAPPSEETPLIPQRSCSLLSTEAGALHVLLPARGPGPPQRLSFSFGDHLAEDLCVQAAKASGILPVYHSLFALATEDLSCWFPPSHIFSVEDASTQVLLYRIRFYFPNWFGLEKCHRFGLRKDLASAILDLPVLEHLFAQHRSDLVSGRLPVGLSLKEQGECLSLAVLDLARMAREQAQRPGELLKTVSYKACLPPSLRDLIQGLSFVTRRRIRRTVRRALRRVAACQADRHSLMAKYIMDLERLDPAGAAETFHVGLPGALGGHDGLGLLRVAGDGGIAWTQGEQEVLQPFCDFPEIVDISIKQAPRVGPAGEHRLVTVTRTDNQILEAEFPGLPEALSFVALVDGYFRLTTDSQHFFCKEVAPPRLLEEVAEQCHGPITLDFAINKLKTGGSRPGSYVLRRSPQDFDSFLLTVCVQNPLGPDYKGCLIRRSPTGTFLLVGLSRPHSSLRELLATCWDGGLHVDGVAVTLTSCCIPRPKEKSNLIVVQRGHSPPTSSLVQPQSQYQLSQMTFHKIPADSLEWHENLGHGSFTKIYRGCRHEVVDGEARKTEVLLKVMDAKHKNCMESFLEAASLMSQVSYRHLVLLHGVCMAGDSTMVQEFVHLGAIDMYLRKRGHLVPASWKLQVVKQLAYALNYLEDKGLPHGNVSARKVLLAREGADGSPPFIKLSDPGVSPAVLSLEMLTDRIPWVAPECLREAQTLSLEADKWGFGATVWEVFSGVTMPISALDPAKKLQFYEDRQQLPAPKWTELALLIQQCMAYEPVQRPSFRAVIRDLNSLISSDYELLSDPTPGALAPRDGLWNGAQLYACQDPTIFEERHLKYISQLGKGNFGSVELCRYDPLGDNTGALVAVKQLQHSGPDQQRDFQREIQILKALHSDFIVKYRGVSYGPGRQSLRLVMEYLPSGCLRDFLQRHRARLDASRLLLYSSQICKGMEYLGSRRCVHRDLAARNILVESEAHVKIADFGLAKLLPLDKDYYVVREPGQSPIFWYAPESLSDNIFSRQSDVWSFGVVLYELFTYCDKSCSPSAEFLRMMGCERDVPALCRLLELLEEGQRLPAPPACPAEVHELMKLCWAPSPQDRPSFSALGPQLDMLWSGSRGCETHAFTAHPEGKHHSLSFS

CYP3A4 = CYP3A4 (Homo sapiens, UniProt P08684); assay: Metabolism by CYP enzymes; type: in vitro ADME; settings: siremadlin
Sequence of CYP3A4 (P08684 whole entry): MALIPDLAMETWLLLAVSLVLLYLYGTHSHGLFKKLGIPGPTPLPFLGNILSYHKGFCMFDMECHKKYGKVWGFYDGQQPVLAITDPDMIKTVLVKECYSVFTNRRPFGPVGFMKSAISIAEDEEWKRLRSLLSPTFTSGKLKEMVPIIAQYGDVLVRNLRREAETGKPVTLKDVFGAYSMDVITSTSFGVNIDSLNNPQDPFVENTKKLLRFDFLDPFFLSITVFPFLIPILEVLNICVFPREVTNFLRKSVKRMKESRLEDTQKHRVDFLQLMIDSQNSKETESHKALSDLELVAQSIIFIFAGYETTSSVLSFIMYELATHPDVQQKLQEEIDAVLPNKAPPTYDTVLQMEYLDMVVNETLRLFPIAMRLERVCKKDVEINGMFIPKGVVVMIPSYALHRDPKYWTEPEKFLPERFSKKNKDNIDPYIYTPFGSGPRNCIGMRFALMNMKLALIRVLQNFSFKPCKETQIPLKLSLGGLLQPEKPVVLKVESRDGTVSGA

P-gp = P-gp (Homo sapiens, UniProt P08183); assay: P-gp substrate assessment in vitro; type: in vitro ADME
Sequence of P-gp (P08183 whole entry): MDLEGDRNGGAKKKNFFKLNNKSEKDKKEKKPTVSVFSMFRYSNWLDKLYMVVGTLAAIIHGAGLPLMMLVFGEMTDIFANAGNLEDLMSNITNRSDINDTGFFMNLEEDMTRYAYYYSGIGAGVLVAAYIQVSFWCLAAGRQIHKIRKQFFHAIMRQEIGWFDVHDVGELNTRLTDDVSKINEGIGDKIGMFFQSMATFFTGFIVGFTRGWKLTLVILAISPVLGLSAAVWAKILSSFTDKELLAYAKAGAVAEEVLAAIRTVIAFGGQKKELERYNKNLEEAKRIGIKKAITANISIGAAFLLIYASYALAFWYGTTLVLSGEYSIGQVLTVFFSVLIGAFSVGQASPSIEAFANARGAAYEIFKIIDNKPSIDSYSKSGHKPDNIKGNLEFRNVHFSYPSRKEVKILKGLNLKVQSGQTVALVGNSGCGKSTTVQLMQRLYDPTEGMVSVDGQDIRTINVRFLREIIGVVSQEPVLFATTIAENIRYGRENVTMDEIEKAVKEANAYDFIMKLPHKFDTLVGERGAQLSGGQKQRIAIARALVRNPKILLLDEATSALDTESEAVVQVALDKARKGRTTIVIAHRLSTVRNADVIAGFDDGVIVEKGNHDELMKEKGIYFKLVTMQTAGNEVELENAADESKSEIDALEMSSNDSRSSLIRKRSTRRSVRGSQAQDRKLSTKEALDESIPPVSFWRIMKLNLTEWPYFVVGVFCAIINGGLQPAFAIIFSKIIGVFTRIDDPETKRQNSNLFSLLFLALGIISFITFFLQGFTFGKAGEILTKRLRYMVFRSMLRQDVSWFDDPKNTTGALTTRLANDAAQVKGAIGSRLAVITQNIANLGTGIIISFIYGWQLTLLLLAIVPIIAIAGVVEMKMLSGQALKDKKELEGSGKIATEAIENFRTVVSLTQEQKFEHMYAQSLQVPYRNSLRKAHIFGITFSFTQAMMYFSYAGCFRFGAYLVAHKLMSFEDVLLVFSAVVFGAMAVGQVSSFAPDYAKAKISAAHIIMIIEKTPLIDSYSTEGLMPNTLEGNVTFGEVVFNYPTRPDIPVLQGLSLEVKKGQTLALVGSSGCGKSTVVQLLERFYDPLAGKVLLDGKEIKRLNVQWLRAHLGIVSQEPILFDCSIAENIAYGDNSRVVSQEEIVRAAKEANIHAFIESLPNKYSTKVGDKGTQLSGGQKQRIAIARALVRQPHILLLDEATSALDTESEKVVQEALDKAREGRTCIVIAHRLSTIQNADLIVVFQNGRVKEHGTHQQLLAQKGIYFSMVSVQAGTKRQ

BCRP = biological target: T1, BCRP (Homo sapiens, UniProt Q9UNQ0); assay: BCRP substrate assessment in vitro; type: in vitro ADME
T1 sequence (Q9UNQ0 1-655): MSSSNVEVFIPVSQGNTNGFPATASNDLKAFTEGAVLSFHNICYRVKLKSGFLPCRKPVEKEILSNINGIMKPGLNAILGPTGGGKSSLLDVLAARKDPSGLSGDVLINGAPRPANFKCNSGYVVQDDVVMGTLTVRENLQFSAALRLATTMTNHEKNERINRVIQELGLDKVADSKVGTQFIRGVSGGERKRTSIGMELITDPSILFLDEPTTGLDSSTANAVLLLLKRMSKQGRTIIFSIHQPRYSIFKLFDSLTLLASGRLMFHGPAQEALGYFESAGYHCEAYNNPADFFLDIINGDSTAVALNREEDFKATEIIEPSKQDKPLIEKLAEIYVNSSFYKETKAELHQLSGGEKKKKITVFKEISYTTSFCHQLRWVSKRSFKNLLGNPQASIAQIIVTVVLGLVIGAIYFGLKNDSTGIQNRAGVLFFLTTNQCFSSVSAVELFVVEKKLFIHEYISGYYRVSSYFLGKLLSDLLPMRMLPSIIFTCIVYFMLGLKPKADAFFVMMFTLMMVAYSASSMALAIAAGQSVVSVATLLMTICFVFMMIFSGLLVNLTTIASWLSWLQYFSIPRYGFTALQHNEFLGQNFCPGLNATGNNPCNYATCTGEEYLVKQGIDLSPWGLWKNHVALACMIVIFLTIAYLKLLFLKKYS

CYP3A4/5 [4] = assay: CYP3A4/5 inhibition in vitro; type: in vitro ADME
CYP3A4/5 [5] = assay: CYP3A4/5 induction in vitro; type: in vitro ADME; settings: net effect anticipated rather as an inhibitor than an inducer
AML subjects = assay: Phase I study HDM201X2101, single-agent siremadlin in solid tumors or hematologic malignancies (R/R AML); type: in vivo, human
Source text: In this study, the selection of the siremadlin dose and regimen is based on the currently available preclinical and clinical safety, efficacy, PK and PK/PD modeling information from the phase I study HDM201X2101, a dose escalation and expansion study of single-agent siremadlin in patients with solid tumors or hematologic malignancies (R/R AML). At the time of data cut-off (15 Jan. 2018), 199 subjects have been treated applying various dosing regimens: 115 subjects with solid and 84 patients with hematological tumors. Safety and efficacy data from this trial in AML subjects was used to determine a recommended Phase 2 dose regimen of 45 mg once a day (QD) from day 1 to day 7 of a 28-day cycle (regimen 2C) which is disclosed in WO/2018/178925 (incorporated herewith by reference), At this dose regimen, Complete Response/Complete Response with incomplete blood count recovery (CR/CRi) were respectively 2/4 subjects out of 24 (25%).

myelofibrosis patients = assay: Safety (DLTs, SAEs), cohort 1 of Phase I/II study of siremadlin in combination with ruxolitinib in myelofibrosis patients; type: in vivo, human; settings: 7 patients, cohort 1, 20 mg Siremadlin in combination with Ruxolitinib
Source text: as §1, §2
Incidence and severity of dose limiting toxicity (DLTs) within the first 2 treatment cycles in Part 1 of the study
1 patient potentially not evaluable due to Siremadlin interruption within first 2 cycles of treatment. PK DDI between ruxolitinib and Siremadlin is unlikely or predicted to be low, based on PBPK analysis. As per statistical model the dose of Siremadlin can be increased to 30 mg or 40 mg D1-D5 in the next cohort.

[6] = system: solid and hematological tumors; settings: preclinical and clinical PK/PD modeling (Guerreiro et al 2018, Meille et al 2017); cited from earlier work
[7] = AML, 45 mg QD day 1 to day 7 of a 28-day cycle (regimen 2C)

Compound | Exposure compared with historical single-agent data ([1]; MF patients) | accumulation upon repeated dosing ([1]; MF patients, ruxolitinib 10, 15 or 20 mg BID with siremadlin) | half-life ([1]; human, in vivo, oral, 20 mg) [h] | inhibition of a broad panel of 26 kinases [2] [%] | capacity to inhibit other major CYP enzymes or transporters [3] | inhibition of JAK3 (JAK3) | metabolizing enzyme (CYP3A4) | P-gp substrate (P-gp) | BCRP substrate (BCRP) | inhibition of CYP3A4/5 (CYP3A4/5 [4]) | induction of CYP3A4/5 (CYP3A4/5 [5]) | Complete Response (CR) (AML subjects; [7]) | Complete Response with incomplete blood count recovery (CRi) (AML subjects; [7]) | CR/CRi rate (AML subjects; AML, 45 mg QD day 1 to day 7 of a 28-day cycle (regimen 2C), 24 subjects) [%] | dose-limiting toxicity (DLT) (AML subjects; hematological tumor patients, regimen 2C) | severity of adverse events (AML subjects; hematological tumor patients, regimen 2C, cytopenias most commonly observed) | most frequently reported adverse drug reactions in clinic (AML subjects; single agent) | DLTs (myelofibrosis patients) | on treatment SAEs (myelofibrosis patients) | anti-tumor activity on reducing application from 7 to 5 consecutive days per 28-day cycle [6]
N#CC[C@H](C1CCCC1)n1cc(-c2ncnc3[nH]ccc23)cn1 [ruxolitinib, (R)-3-(4-(7H-pyrrolo[2,3-d]pyrimidin-4-yl)-1H-pyrazol-1-yl)-3-cyclopentylpropanenitrile] | within the exposure range of values observed previously | little accumulation | 3 to 4 | < 30 | little or no capacity to inhibit | does not inhibit | – | – | – | – | – | – | – | – | – | – | – | – | – | –
COc1ncc(-c2nc3c(n2C(C)C)[C@H](c2ccc(Cl)cc2)N(c2cc(Cl)cn(C)c2=O)C3=O)c(OC)n1 [siremadlin, (S)-5-(5-Chloro-1-methyl-2-oxo-1,2-dihydro-pyridin-3-yl)-6-(4-chloro-phenyl)-2-(2,4-dimethoxy-pyrimidin-5-yl)-1-isopropyl-5,6-dihydro-1H-pyrrolo[3,4-d]imidazol-4-one] | comparable to exposures observed previously | – | – | – | – | – | predominantly metabolized by CYP3A4 | substrate | substrate | time-dependent inhibitor and a reversible inhibitor | inducer | 2 subjects out of 24 | 4 subjects out of 24 | 25 | tumor lysis syndrome (TLS) | mild to moderate in severity, reversible and manageable | hematological toxicities including thrombocytopenia, neutropenia and anemia | no DLTs | no on treatment SAEs | maintains equivalent anti-tumor activity
